# Test results published in EP0414391B1, “Aminoketone derivatives and use thereof” (MITSUI TOATSU CHEMICALS, Inc., priority 1989, dated 1991).
# Structures can show the parent of a compound that is named as a salt. Where two headings read alike, the source gives them in different places.
# Legend:
# [1] = system: Tonic extension of the hind limbs; assay: Antiepileptic action (pentetrazole-induced tonic extension of the hind limbs); assay type: in vivo, ddy Male mice; conditions: Mus musculus, ip, 0.5 h, read-out: Antiepileptic action ED₅₀
# Procedure: ddy Male mice (body weights: 25-30 g) were used. Test compounds were intraperitoneally administered. Thirty minutes later, pentetrazole (PTZ) was intraperitoneally administered at 170 mg/kg.
# Tonic extension of the hind limbs was observed. [formula]
# Effective dose for 50% of antiepileptic action, ED₅₀ (mg/kg) was calculated.
# [2] = Central depressant action (spontaneous behavior, revolutionary wheel); parameters: species or system ddy Male mice; conditions: mouse, in vivo, ip; intraperitoneal administration; dose reducing the number of wheel revolutions in 20 minutes by 50%; read-out: Central depressant action ED₅₀
# Procedure: Depressant action against spontaneous behavior using a revolutionary wheel was used as an index for central depressant action.
# ddy Male mice (body weights: 25-30 g) were used. After intraperitoneal administration of each test compound, the mouse was immediately placed in a revolutionary wheel. The total number of revolutions of the wheel during a 20 minute period immediately after the placement of the mouse inside the wheel was counted.
# Doses required to reduce the number of revolutions by 50%, ED₅₀ (mg/kg) were determined.
# [3] = system: decerebrate rigidity induced by radio frequency lesions of rat brains; assay: Decerebrate rigidity remission action (radio frequency lesion, method of Ono et al); assay type: in vivo, Wistar male rat; conditions: iv, intravenously administered at 3 mg/kg, tension before the administration = 100%
# Description: Using the method proposed by Ono et al [H. Ono et al, Gen. Pharmacol., 18, 57 (1987)], rigidity remission action of the aminoketone derivatives of the invention for the decerebrate rigidity induced by radio frequency lesions of rat brains was investigated.
# Each Wistar male rat (body weight: 300-400 g) was anesthetized with ether and then fixed on a stereotaxic apparatus. In accordance with the Pellegrino's stereo-taxic brain atlas, the electrodes of a lesion generator (manufactured by Radionics Company) were punctuated to AP: 0, L:±1.5, V:-3. […] The rigidified rat was fixed in the abdominal position and one of the hind legs was pushed 4-5 mm toward the head repeatedly once a minute. The tension of each extension reflex of the extensor of the hind limbs was recorded. Assuming that the tension before the administration be 100%, the rate of rigidity inhibition as expressed in terms of percentage: [formula]
# (§1) The test compounds were intravenously administered at 3 mg/kg.
# Acute toxicity = conditions: mouse, in vivo, ip; intraperitoneally administered; alive or dead observed one day later; read-out: LD₅₀
# Procedure: ddy Male mice (body weights: 25-30 g) were used. Each test compound was intraperitoneally administered. One day later, the mice were observed whether they were alive or dead.
# 50% lethal doses, LD₅₀ (mg/kg) were calculated.
# [4] = system: flexor reflex of the right anterior tibialis; assay: Depressing action for the spinal reflex of cat (flexor reflex); assay type: in vivo, cats; conditions: Felis catus, iv, read-out: Reflex inhibition, %
# Procedure: Both male and female cats having a body weight of 2.5-4.0 kg were anesthetized with ether and then fixed in the supine position. In accordance with the method proposed by Shimamoto et al ["Yakurigaku Jisshu (Pharmacological Practice)", Nanzando Co., Ltd. (1960)], profound peroneal nerve-anterior peroneal nerve samples were prepared for the testing of flexor reflex. The flexor reflex of the right anterior tibialis was elicited by electrical stimulation (0.2 Hz, 1 ms, supra maximal voltage) of the central end of the ipsilateral femoral nerve. Under a static tension of 25 g, contractions of the corresponding anterior peroneal nerve were recorded on a polygraph. Assuming that the contraction force before the administration be 100%, the rate of flexor reflex inhibition was expressed in terms of percentage: [formula]
# as §1
# [5] = system: contraction of the bladder caused by a micturition reflex; assay: Micturition reflex depression action (bladder balloon, internal pressure); assay type: in vivo, Wistar male rats; conditions: injected through the common carotid vein, urethane-anesthetized rats, Mean ± S.E., 3 rats
# Description: Wistar male rats having a body weight of 300 g were each anesthetized s.c. with 1.5 g/kg of urethane and fixed in the supine position. The hypogastrium was next subjected to median incision so that the bladder was exposed. A short cut was formed in a top part of the bladder, through which a balloon having an internal volume of about 1 mℓ was inserted. A catheter equipped with a three-way cock was connected to the balloon. A syringe was connected to another flow passage of the three-way cock, while a transducer ("Statham P-50", trade name) was connected to the remaining flow passage to permit the measurement of the internal pressure of the bladder.
# After the rat was left over for at least 30 minutes after the operation, 0.25-0.5 mℓ of distilled water was injected into the balloon by means of the syringe. Variations in the internal pressure of the bladder, which were developed at that time due to spontaneous movement of the bladder, were recorded on a polygraph ("RM-6000", trade name; manufactured by Nihon Koden K.K.) by way of the transducer.
# Each test compound was dissolved in physiological saline and injected through the common carotid vein. Effects of each test compound was expressed in terms of the time required until the disappearance of a contraction of the bladder caused by a micturition reflex.
# [6] = intraperitoneally administered 30 minutes before pentetrazole (PTZ) 170 mg/kg i.p.
# [7] = intravenously administered at 3 mg/kg, contraction force before the administration = 100%
SMILES,"ED50 [1, 6] [mg/kg]",ED50 at 20 min [2] [mg/kg],inhibition in vivo at 3 mg/kg [3] [%],LD50 at 24 h (Acute toxicity) [mg/kg],"inhibition in vivo at 3 mg/kg [4, 7] [%]",other results
CC(CN1CCCC1)C(=O)c1cc(-c2ccccc2)no1 (centres unmarked) [Example 5],20,44,40,100 to 170,–,–
"CC(CN1CCCCC1)C(=O)c1cc(C(=O)c2ccccc2)no1.Cl (centres unmarked) [Example 22, 3-benzoyl-5-(2-methyl-3-piperidinopropionyl)isoxazole hydrochloride]",18,43,41,–,–,–
"CC(CN1CCCCC1)C(=O)c1cc(Cc2ccccc2)no1.Cl (centres unmarked) [Example 21, 3-Benzyl-5-(2-methyl-3-piperidinopropionyl)isoxazole hydrochloride]",–,52,44,–,–,–
"CCC(CN1CCCC1)C(=O)c1cc(-c2ccccc2)no1 (centres unmarked) [Example 28, 3-Phenyl-5-{2-(1-pyrrolidinylmethyl)butyryl} isoxazole hydrochloride]",5,44,62,100 to 170,79,Time required until disappearance ([5]; Dose 2 mg/kg): 5.6 ± 1.2 min; Time required until disappearance ([5]; Dose 4 mg/kg): 10.1 ± 2.1 min
"Cc1ccc(-c2cc(C(=O)C(C)CN3CCCC3)on2)o1 (centres unmarked) [Example 20, hydrochloride]",–,49,49,170 to 300,54,–
CC(CN1CCCC1)C(=O)c1snc2ccccc12 (centres unmarked) [Example 61],11,37,–,–,85,–
CCC(CN1CCCC1)C(=O)c1cc(-c2ccc(C)o2)no1 (centres unmarked) [Example 38],–,–,–,–,38,–
"CC(CN1CCCCC1)C(=O)c1cc(-c2ccccc2)no1.Cl (centres unmarked) [Example 1, 5-(2-methyl-3-piperidinopropionyl)-3-phenylisoxazole Hydrochloride]",17,54,40,170 to 300,–,–
"CCc1ccc(C(=O)C(C)CN2CCCCC2)cc1 (centres unmarked) [Eperisone hydrochloride, eperisone hydrochloride, reference compound]",30,33,52,100 to 170,50,Time required until disappearance ([5]; Dose 2 mg/kg): 2.4 ± 1.2 min; Time required until disappearance ([5]; Dose 4 mg/kg): 5.8 ± 2.1 min
CCC(CN1CCCC1)C(=O)c1cc(-c2ccccc2)on1 (centres unmarked) [Example 52],–,–,61,–,–,–
"CCC(CN1CCCC1)C(=O)c1noc2ccccc12 (centres unmarked) [Example 58, 3-{2-(1-pyrrolidinylmethyl)butyryl} -1,2-benzisoxazole hydrochloride]",–,–,–,–,–,inhibition in vivo at 3 mg/kg [4]: 45%
CCCC(CN1CCCC1)C(=O)c1cc(-c2ccccc2)no1 (centres unmarked) [Example 47],–,–,–,–,–,inhibition in vivo at 3 mg/kg [4]: 45%
CCC(CN1CCCC1)C(=O)c1snc2ccccc12 (centres unmarked) [Example 62],–,50,–,–,–,ED50 [1]: 23 mg/kg; inhibition in vivo at 3 mg/kg [4]: 90%
"CC(C)C(CN1CCCC1)C(=O)c1cc(-c2ccccc2)no1 (centres unmarked) [Example 46, 3-Phenyl-5-{2-(1-pyrrolidinylmethyl)-3-methylbutyryl}-isoxazole hydrochloride]",–,–,51,–,66,–
COc1cccc(-c2cc(C(=O)C(C)CN3CCCC3)on2)c1 (centres unmarked) [Example 8],–,–,38,–,–,–
"Cc1onc(-c2ccccc2)c1C(=O)C(C)CN1CCCCC1.Cl (centres unmarked) [Example 68, 3-Phenyl-5-methyl-4-(2-methyl-3-piperidinopropionyl)isoxazole hydrochloride]",17,–,–,–,56,–
CCC(CN1CCCCC1)C(=O)c1cc(-c2ccccc2)no1 (centres unmarked) [Example 29],3,38,53,300 to 500,70,Time required until disappearance ([5]; Dose 2 mg/kg): 4.9 ± 1.2 min; Time required until disappearance ([5]; Dose 4 mg/kg): 8.6 ± 2.1 min
